Results on 4 compounds are retold here after patent US20120053170A1, “NICOTINAMIDE DERIVATIVES, PREPARATION THEREOF, AND THERAPEUTIC USE THEREOF AS ANTICANCER DRUGS” (SANOFI, priority 2009, published 2012).

Structures are written as SMILES.

This test relates to HCT116 tumour line (ATCC-CCL247). Description: MTS cell proliferation and viability test on the HCT116 tumour line. It counts as cell-based. The conditions noted are these: Homo sapiens, HCT-116, incubating the test compound for 72 hours, read-out: IC50 (concentration of compound which results in a 50% loss of cell proliferation and viability). The procedure: They were tested in vitro on the HCT116 tumour line (ATCC-CCL247). […] In this test, the mitochondrial ability of the living cells to convert MTS to a coloured compound is measured after incubating the test compound for 72 hours.
As for `Nc1ccc(CNC(=O)Nc2ccc(-c3ccc(C(=O)NCCN4CCCCC4)c(Nc4ccccc4)n3)cc2F)cn1` [Compound No. 5, 6-{4-[3-(6-Aminopyridin-3-ylmethyl)ureido]-3-fluorophenyl}-2-phenylamino-N-[2-(piperidin-1-yl)ethyl]nicotinamide], the IC50 was < 1 nM.

Take `CCNc1nc(-c2ccc(NC(=O)NCc3ccc(N)nc3)cc2F)ccc1C(=O)NCCN1CCCCC1` [Compound No. 11, 6-{4-[3-(6-Aminopyridin-3-ylmethyl)ureido]-2-fluorophenyl}-2-ethylamino-N-[2-(piperidin-1-yl)ethyl]nicotinamide]: the IC50 is < 1 nM. Regarding `CCNc1nc(-c2ccc(NC(=O)NCc3ccc(N)nc3)c(F)c2)ccc1C(=O)NCCN1[C@H](C)CCC[C@@H]1C` [Compound No. 19, 6-{4-[3-(6-Aminopyridin-3-ylmethyl)ureido]-3-fluorophenyl]-N-[2-(cis-2,6-dimethylpiperidin-1-yl)ethyl]-2-(ethylamino)nicotinamide], the IC50 is < 1 nM.

For the compound `CCNc1nc(-c2ccc(NC(=O)NCc3cccnc3)c(F)c2)ccc1C(=O)NCCN1CCCCC1` [Compound No. 27, 2-Ethylamino-6-{3-fluoro-4-[3-(pyridin-3-ylmethyl)ureido]phenyl}-N-[2-(piperidin-1-yl)ethyl]nicotinamide], the IC50 is < 1 nM.
